The values that follow are results of earlier work, collected in US12233147B2, “Method for treating keratin material” (Henkel AG & Co. KGaA, priority 2019, dated 2025).

For this data set the following is noted: 25° C.
Take `O=C([O-])C1=NN(c2ccc(S(=O)(=O)[O-])cc2)C(=O)C1N=Nc1ccc(S(=O)(=O)[O-])cc1.[Na+].[Na+].[Na+]` (stereo not shown) [Acid Yellow 23, trisodium salt of 4,5-dihydro-5-oxo-1-(4-sulfophenyl)-4-((4-sulfophenyl)azo)-1H-pyrazole-3-carboxylic acid]: the “solubility in water” value is “highly soluble in water”.
Turning to `O=C([O-])c1c(Cl)c(Cl)c(Cl)c(Cl)c1-c1c2c(Br)cc(=O)c(Br)c-2oc2c(Br)c(O)cc(Br)c12.O=C([O-])c1c(Cl)c(Cl)c(Cl)c(Cl)c1-c1c2c(Br)cc(=O)c(Br)c-2oc2c(Br)c(O)cc(Br)c12.[Na+].[Na+]` [Acid Red 92, disodium salt of 3,4,5,6-tetrachloro-2-(1,4,5,8-tetrabromo-6-hydroxy-3-oxoxanthen-9-yl)benzoic acid], the solubility in water result is given as “greater than 10 g/L”.
As for `Nc1cc(S(=O)(=O)[O-])cc2cc(S(=O)(=O)[O-])c(N=Nc3ccccc3)c(O)c12.[Na+].[Na+]` [Acid Red 33, diantrium salt of 5-amino-4-hydroxy-3-(phenylazo)-naphthalene-2,7-disulphonate], the solubility in water was 2500 µg/mL.
Take `O=S(=O)([O-])c1ccc(N=Nc2c(O)ccc3ccccc23)cc1.[Na+]` [Acid Orange 7, sodium salt of 4-[(2-hydroxy-1-naphthyl)azo]benzene sulphonate]: the solubility in water result was “more than 7 g/L”.
